In US11939314B2, “Quinolin-2-one derivatives” (MERCK PATENT GMBH, priority 2016, dated 2024):
pIC50: −log10 of the molar value.

Columns and labels:
c-Kit(V654A) = target: T1, c-Kit(V654A) (Homo sapiens, UniProt P10721, V654A); assay: c-Kit(V654A) assay; format: biochemical; settings: recombinant human c-Kit aa 544-end, 200 μM ATP, 1.4E-06 means 1.4×10^−6, read-out: Inhibition (IC50) of c-KIT (V654A)
T1 construct: amino acids 544-end containing the V654A mutation; GST (N)
Method in brief: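 Radiometric filter-binding read-out: substrate 33P incorporation counted by scintillation after P30 filtermat washes in 75 mM phosphoric acid and methanol. Enzyme: N-GST recombinant human c-Kit aa 544-end carrying V654A.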

PDGFRalpha(V561D) = target: T2, PDGFRalpha(V561D) (Homo sapiens, UniProt P16234, V561D); assay: PDGFRalpha(V561D) assay; format: biochemical; settings: recombinant human PDGFRalpha aa 550-end, 200 μM ATP, 1.4E-06 means 1.4×10^−6, read-out: Inhibition (IC50) of PDGFRα (V561D)
T2 construct: recombinant human PDGFRalpha, amino acids 550end containing the V561 D mutation; 6His (N)
T2 sequence (P16234 550-1089 V561D): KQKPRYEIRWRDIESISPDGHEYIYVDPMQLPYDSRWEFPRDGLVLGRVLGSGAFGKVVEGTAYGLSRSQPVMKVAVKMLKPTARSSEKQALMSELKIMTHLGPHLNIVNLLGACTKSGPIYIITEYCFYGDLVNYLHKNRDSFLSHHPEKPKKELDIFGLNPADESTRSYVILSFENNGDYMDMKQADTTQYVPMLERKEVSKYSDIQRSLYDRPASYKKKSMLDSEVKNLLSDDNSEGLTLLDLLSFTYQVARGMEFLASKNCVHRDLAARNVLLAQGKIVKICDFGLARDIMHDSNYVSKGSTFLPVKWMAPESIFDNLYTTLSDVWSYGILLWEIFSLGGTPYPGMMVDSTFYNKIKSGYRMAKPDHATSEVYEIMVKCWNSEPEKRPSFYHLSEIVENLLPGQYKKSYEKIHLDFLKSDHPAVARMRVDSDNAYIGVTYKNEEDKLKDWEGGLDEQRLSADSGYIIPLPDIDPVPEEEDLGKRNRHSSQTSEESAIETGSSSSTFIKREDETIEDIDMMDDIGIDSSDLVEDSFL
Method in brief: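 Radiometric filter-binding assay: substrate phosphorylation by recombinant N-His-tagged human PDGFRα 550-end V561D was quenched with 3% phosphoric acid after 40 min at room temperature, then counted.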

T1 sequence (P10721 544-976 V654A): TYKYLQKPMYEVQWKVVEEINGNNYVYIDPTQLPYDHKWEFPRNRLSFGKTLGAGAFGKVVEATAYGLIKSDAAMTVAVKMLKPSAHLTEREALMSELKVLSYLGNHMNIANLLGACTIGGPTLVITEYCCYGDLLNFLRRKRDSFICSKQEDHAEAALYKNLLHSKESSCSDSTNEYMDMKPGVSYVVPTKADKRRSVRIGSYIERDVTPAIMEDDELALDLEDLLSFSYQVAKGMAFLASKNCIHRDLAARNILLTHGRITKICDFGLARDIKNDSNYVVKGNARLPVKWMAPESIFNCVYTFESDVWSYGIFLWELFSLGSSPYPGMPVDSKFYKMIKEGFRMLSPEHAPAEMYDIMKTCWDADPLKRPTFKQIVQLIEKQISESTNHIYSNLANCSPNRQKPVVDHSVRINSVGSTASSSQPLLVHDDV

| pIC50 (c-Kit(V654A)) | pIC50 (PDGFRalpha(V561D)) | SMILES |
| --- | --- | --- |
| 7.62 | 8.40 | CN1CCN(C(=O)c2cccc(-n3cc(-c4cc5cc(F)ccc5[nH]c4=O)nn3)c2)CC1 [A153, 6-Fluoro-3-{1-[3-(4-methyl-piperazine-1-carbonyl)-phenyl]-1H-[1,2,3]triazol-4-yl}-1H-quinolin-2-one] |
| 7.17 | 9.12 | CO[C@@H]1CN(C(=O)c2ccc(-n3cc(-c4cc5cc(F)ccc5[nH]c4=O)cn3)cc2)C[C@H]1OC [A300, 3-{1-[4-((3R,4R)-3,4-dimethoxy-pyrrolidine-1-carbonyl)-phenyl]-1H-pyrazol-4-yl}-6-fluoro-1H-quinolin-2-one] |
| 7.01 | 7.04 | COC[C@H]1CCN(C(=O)c2ccc(-n3cc(-c4cc5cc(F)c(F)cc5[nH]c4=O)nn3)cc2)C1 [A201, 6,7-difluoro-3-{1-[4-((S)-3-methoxymethyl-pyrrolidine-1-carbonyl)-phenyl]-1H-[1,2,3]triazol-4-yl}-1H-quinolin-2-one] |
| 8.08 | 7.96 | CN1CCC(C(=O)c2ccc(-n3cc(-c4cc5cc(F)c(F)cc5[nH]c4=O)nn3)cc2)CC1 [A164, 6,7-difluoro-3-{1-[4-(1-methyl-piperidine-4-carbonyl)-phenyl]-1H-[1,2,3]triazol-4-yl}-1H-quinolin-2-one] |
| 7.13 | 7.64 | CNC(=O)c1ccc(-n2cc(-c3cc4ccccc4[nH]c3=O)nn2)cc1F [A39, 2-fluoro-N-methyl-4-[4-(2-oxo-1,2-dihydro-quinolin-3-yl)-[1,2,3]triazol-1-yl]-benzamide] |
| 6.57 | 8.14 | CN(C)C[C@@H]1CCCN1C(=O)c1ccc(-n2cc(-c3cc4cc(F)ccc4[nH]c3=O)cn2)cc1 [A324, 3-{1-[4-((S)-2-dimethylaminomethyl-pyrrolidine-1-carbonyl)-phenyl]-1H-pyrazol-4-yl}-6-fluoro-1H-quinolin-2-one] |
| 5.24 | 6.96 | O=C1COCCN1c1ccc(-n2cc(-c3cc4ccccc4[nH]c3=O)nn2)cn1 [A34, 3-{1-[6-(3-oxo-morpholin-4-yl)-pyridin-3-yl]-1H-[1,2,3]triazol-4-yl}-1H-quinolin-2-one] |
| 7.10 | 7.49 | O=C(NCCN1CCOCC1)c1ccc(-n2cc(-c3cc4ccccc4[nH]c3=O)nn2)cc1 [A21, N-(2-morpholin-4-yl-ethyl)-4-[4-(2-oxo-1,2-dihydro-quinolin-3-yl)-[1,2,3]triazol-1-yl]-benzamide] |
| 8.05 | 7.07 | CN(C(=O)[C@H]1CCCO1)c1ccc(-n2cc(-c3cc4cc(F)ccc4[nH]c3=O)nn2)cc1 [A343, (R)-tetrahydro-furan-2-carboxylic acid {4-[4-(6-fluoro-2-oxo-1,2-dihydro-quinolin-3-yl)-[1,2,3]triazol-1-yl]-phenyl}-methyl-amide] |
| 7.74 | 7.27 | CC(=O)N1CCN(CCOc2ccc(-n3cc(-c4cc5cc(F)ccc5[nH]c4=O)nn3)cc2)CC1 [A100a, 3-(1-{4-[2-(4-acetyl-piperazin-1-yl)-ethoxy]-phenyl}-1H-[1,2,3]triazol-4-yl)-6-fluoro-1H-quinolin-2-one] |
| 7.31 | 7.33 | CN1CCC(CNC(=O)c2ccc(-n3cc(-c4cc5ccccc5[nH]c4=O)nn3)cc2)CC1 [A15, N-(1-methyl-piperidin-4-ylmethyl)-4-[4-(2-oxo-1,2-dihydro-quinolin-3-yl)-[1,2,3]triazol-1-yl]-benzamide] |
| 7.24 | 8.00 | CN1CCN(C(=O)C2CCCN2C(=O)c2ccc(-n3cc(-c4cc5cc(F)ccc5[nH]c4=O)nn3)cc2)CC1 (stereo not drawn) [A281, 6-fluoro-3-(1-{4-[2-(4-methyl-piperazine-1-carbonyl)-pyrrolidine-1-carbonyl]-phenyl}-1H-[1,2,3]triazol-4-yl)-1H-quinolin-2-one] |
| 8.10 | 8.22 | CN1CCN(C(=O)c2ccc(-n3cc(-c4cc5ccccc5[nH]c4=O)cn3)cc2)CC1 [A74, 3-{1-[4-(4-methyl-piperazine-1-carbonyl)-phenyl]-1H-pyrazol-4-yl}-1H-quinolin-2-one] |
| 8.10 | 8.40 | CN1CCN(c2ccc(-n3cc(-c4cc5cc(F)ccc5[nH]c4=O)nn3)cc2)C(=O)C1 [A71, 6-fluoro-3-{1-[4-(4-methyl-2-oxo-piperazin-1-yl)-phenyl]-1H-[1,2,3]triazol-4-yl}-1H-quinolin-2-one] |
| 8.01 | 7.42 | O=c1[nH]c2ccc(F)cc2cc1-c1cn(-c2ccc(OCCCN3CCNCC3)cc2)nn1 [A131, 6-fluoro-3-{1-[4-(3-piperazin-1-yl-propoxy)-phenyl]-1H-[1,2,3]triazol-4-yl}-1H-quinolin-2-one] |
| 7.40 | 7.80 | O=C(c1ccc(-n2cc(-c3cc4cccnc4[nH]c3=O)nn2)cc1)N1CCNCC1 [A121, 3-{1-[4-(piperazine-1-carbonyl)-phenyl]-1H-[1,2,3]triazol-4-yl}-1H-[1,8]naphthyridin-2-one] |
| 7.77 | 8.00 | CN1CCN(C(=O)c2ccc(-n3cc(-c4cc5ccc(Cl)cc5[nH]c4=O)nn3)cc2)CC1=O [A97, 7-chloro-3-{1-[4-(4-methyl-3-oxo-piperazine-1-carbonyl)-phenyl]-1H-[1,2,3]triazol-4-yl}-1H-quinolin-2-one] |
| 7.55 | 7.49 | O=C(c1ccc(-n2cc(-c3cc4cc(F)ccc4[nH]c3=O)nn2)cc1)N1CCC[C@H]1CO [A197, 6-fluoro-3-{1-[4-((S)-2-hydroxymethyl-pyrrolidine-1-carbonyl)-phenyl]-1H-[1,2,3]triazol-4-yl}-1H-quinolin-2-one] |
| 7.85 | 9.14 | O=C(c1ccc(-n2cc(-c3cc4cc(F)ccc4[nH]c3=O)nn2)cc1)N1CCC[C@H]1CN1CCCC1 [A279, 6-fluoro-3-{1-[4-((S)-2-pyrrolidin-1-ylmethyl-pyrrolidine-1-carbonyl)-phenyl]-1H-[1,2,3]triazol-4-yl}-1H-quinolin-2-one] |
| 8.01 | 6.47 | O=C(c1ccc(-n2cc(-c3cc4c(F)cc(F)cc4[nH]c3=O)nn2)cc1)N1CCC(N2CCCC2)C1 (stereo not drawn) [A105, 3-{1-[4-([1,3′]bipyrrolidinyl-1′-carbonyl)-phenyl]-1H-[1,2,3]triazol-4-yl}-5,7-difluoro-1H-quinolin-2-one] |
| 7.57 | 8.43 | O=C(c1ccc(-n2cc(-c3cc4cc(Cl)ccc4[nH]c3=O)nn2)cc1)N1CCC2(COC2)C1 [A257, 6-chloro-3-{1-[4-(2-oxa-6-aza-spiro[3.4]octane-6-carbonyl)-phenyl]-1H-[1,2,3]triazol-4-yl}-1H-quinolin-2-one] |
| 6.89 | 6.60 | CC(=O)N1C[C@@H]2[C@H](C1)[C@H]2NC(=O)c1ccc(-n2cc(-c3cc4cc(F)ccc4[nH]c3=O)nn2)cc1 [A240, N-(3-acetyl-3-aza-bicyclo[3.1.0]hex-6-yl)-4-[4-(6-fluoro-2-oxo-1,2-dihydro-quinolin-3-yl)-[1,2,3]triazol-1-yl]-benzamide] |
| 7.52 | 7.85 | NC(=O)[C@H]1CCN(C(=O)c2ccc(-n3cc(-c4cc5cc(F)ccc5[nH]c4=O)nn3)cc2)C1 [A243, (S)-1-{4-[4-(6-fluoro-2-oxo-1,2-dihydro-quinolin-3-yl)-[1,2,3]triazol-1-yl]-benzoyl}-pyrrolidine-3-carboxylic acid amide] |
| 5.80 | 6.49 | COC[C@@H]1CC[C@@H](COC)N1C(=O)c1ccc(-n2cc(-c3cc4cc(F)c(F)cc4[nH]c3=O)nn2)cc1 [A219, 3-{1-[4-((2S,5S)-2,5-bis-methoxymethyl-pyrrolidine-1-carbonyl)-phenyl]-1H-[1,2,3]triazol-4-yl}-6,7-difluoro-1H-quinolin-2-one] |
| 6.70 | 7.34 | CN1CCN(C(=O)c2ccc(-n3cc(-c4cc5cnccc5[nH]c4=O)nn3)cc2)CC1 [A62, 3-{1-[4-(4-methyl-piperazine-1-carbonyl)-phenyl]-1H-[1,2,3]triazol-4-yl}-1H-[1,6]naphthyridin-2-one] |
| 7.77 | 8.42 | CN(C)C[C@H]1CCCN1C(=O)c1ccc(-n2cc(-c3cc4cc(F)ccc4[nH]c3=O)cn2)cc1 [A325, 3-{1-[4-((R)-2-dimethylaminomethyl-pyrrolidine-1-carbonyl)-phenyl]-1H-pyrazol-4-yl}-6-fluoro-1H-quinolin-2-one] |
| 7.15 | 6.55 | O=C(c1ccc(-n2cc(-c3cc4cc(F)ccc4[nH]c3=O)nn2)cc1)N1CCC(OCCN2CCCC2)C1 (stereo not drawn) [A224, 6-fluoro-3-(1-{4-[3-(2-pyrrolidin-1-yl-ethoxy)-pyrrolidine-1-carbonyl]-phenyl}-1H-[1,2,3]triazol-4-yl)-1H-quinolin-2-one] |
| 7.30 | 7.49 | O=c1[nH]c2ccccc2cc1-c1cn(-c2ccccc2)nn1 [A27, 3-(1-phenyl-1H-[1,2,3]triazol-4-yl)-1H-quinolin-2-one] |
| 7.28 | 6.51 | CN(C)C1CCN(C(=O)c2ccc(-n3cc(-c4cc5cc(F)ccc5[nH]c4=O)nn3)cc2)C1 (stereo not drawn) [A207, 3-{1-[4-(3-dimethylamino-pyrrolidine-1-carbonyl)-phenyl]-1H-[1,2,3]triazol-4-yl}-6-fluoro-1H-quinolin-2-one] |
| 7.19 | 7.43 | O=C(c1ccc(-n2cc(-c3cc4cc(F)ccc4[nH]c3=O)nn2)cc1)N1CCOC[C@H]1CO [A213, 6-fluoro-3-{1-[4-((R)-3-hydroxymethyl-morpholine-4-carbonyl)-phenyl]-1H-[1,2,3]triazol-4-yl}-1H-quinolin-2-one] |
